The values that follow come from PMC7697893, “Novel 1-Amidino-4-Phenylpiperazines as Potent Agonists at Human TAAR1 Receptor: Rational Design, Synthesis, Biological Evaluation and Molecular Docking Studies” (Pharmaceuticals, 2020).

One may read the melting point as the temperature of the solid-liquid transition. The term CC50 denotes the concentration that lowers cell viability or growth by half. A high value points to lower toxicity to the cells.

Data set [1] has as its target T1, hTAAR1 (Homo sapiens, UniProt Q96RJ0).
T1 construct: expressed in transfected cells; host or cells: HEK-293T (ATCC)
T1 sequence (Q96RJ0 1-339): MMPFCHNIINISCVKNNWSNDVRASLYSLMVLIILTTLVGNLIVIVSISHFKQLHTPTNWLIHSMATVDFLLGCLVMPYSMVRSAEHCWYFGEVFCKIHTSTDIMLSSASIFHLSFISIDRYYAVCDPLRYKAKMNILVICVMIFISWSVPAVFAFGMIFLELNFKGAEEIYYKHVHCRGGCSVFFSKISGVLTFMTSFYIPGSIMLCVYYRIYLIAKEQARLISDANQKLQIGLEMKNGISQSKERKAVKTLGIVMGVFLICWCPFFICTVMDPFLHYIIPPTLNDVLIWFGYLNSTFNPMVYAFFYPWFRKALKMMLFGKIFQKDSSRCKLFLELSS

In another data set the test system is mTAAR1. More on the design: method as in PMID 27823885, PMID 29407948. As to conditions: Figure 2, biguanides SET1 and SET2; cited from earlier work.
The target of data set [2] is T1, hTAAR1. Briefly: Functional activity at hTAAR1, cAMP BRET biosensor in HEK-293T cells. In kind it is cell-based. As to conditions: for Emax at 10 µM: HEK-293T, read-out: hTAAR1 Activity. Here is the method:
The activity of the compounds was measured using human embryonic kidney 293 (HEK-293T) cells co-transfected with plasmids encoding hTAAR1 and a cAMP Bioluminescence Resonance Energy Transfer (BRET) biosensor, or empty vector as a control. TYR was used as a positive control for agonism. Firstly, all the compounds were tested at 10 μM either for agonistic or antagonistic activity.
BRET screening was described in detail elsewhere. HEK-293T (ATCC) cells were transiently сo-transfected with plasmids encoding hTAAR1 and a cAMP BRET biosensor using Lipofectamine® (ThermoFisher) reagent, and then plated in 96-well plates (Corning) at […] per well. On the following day, culture medium was removed and 70 μL of phosphate-buffered saline containing calcium and magnesium was added to each well, followed by the addition of 10 μL […] 3-isobutyl-1-methylxanthine solution (Sigma), and 10 μL 50 μM coelenterazine-h solution (Promega). All tested compounds were dissolved in DMSO to yield 10 mM stock solutions. After 10 min incubation, either 10 μL of vehicle or 10× of the concentrated solution of compound to be tested (10 μM final concentration) was added. Readings were collected using a Mithras LB943 multimodal plate reader (Berthold Technologies). The BRET signal is determined by calculating the ratio of the light emitted at 505 to 555 nm to the light emitted at 465 to 505 nm.
Curves were fitted by applying non-linear regression models on GraphPad Prism 6 (GraphPad Software).
(In general: In BRET a luciferase serves as donor, and the signal depends on an acceptor being close.)

Data set [3] in a line: Cell cytotoxicity assay (MTT) on Vero-76 cells. In kind it is cell-based, Cercopithecus Aethiops. Conditions: Cercopithecus aethiops (African green monkey), Vero-76 cells; MTT method, 48–96 h; CC50±SEM. The method, then: (§1) Vero-76 cells (ATCC CRL 1587 Cercopithecus Aethiops) were seeded at an initial density of 4 × 10^5 cells/mL in 24-well plates, in culture medium (Dulbecco’s Modified Eagle Medium (D-MEM) with L-glutamine, supplemented with fetal bovine serum (FBS), 0.025 g/L kanamycin). Cell cultures were then incubated at 37 °C in a humidified, 5% CO2 atmosphere in the absence or presence of serial dilutions of test compounds. Cell viability was determined after 48–96 h at 37 °C by the MTT staining method. The results are expressed as CC50, which is the concentration of compound necessary to inhibit cell growth by 50%. Each CC50 value is the mean and standard deviation of at least three separate experiments performed in duplicate.

Another data set relates to Vero-76 cells. Description: Cell cytotoxicity assay (MTT) on Vero-76 cells. Conditions: ratio of Vero-76 CC50 to hTAAR1 EC50. It is filed as cell-based, Cercopithecus Aethiops. The method, then:
as §1

Details of data set [4]: method as in PMID 5719030. Conditions: potentiating pressor effect of tyramine and NE; cited from earlier work.
Where [5] appears, read: Figure 2, biguanides SET1 and SET2; cited from earlier work.
The mark [6] stands for this setting: Figure 2, biguanides SET1 and SET2; read-out: hTAAR1 EC50; cited from earlier work.
Setting [7] is: hTAAR1, amidines of this paper, from EC50, read-out: pEC50 (converted).
Where [8] appears, read: dose–response 10 nM to 10 μM, means of 4 experiments, errors within 10%, read-out: hTAAR1 EC50.
Setting [9] is: as compared with 1 µM TYR (full agonism), compounds tested at 10 μM.

Structures are written as SMILES. Counter-ions that a name gives are not always drawn. Like-named read-outs stand apart in the source and are kept apart here.

Take `N=C(N)N1CCN(c2cccc(C(F)(F)F)c2)CC1` (as salt: hydrochloride) [Compound 9, 4-[(3-Trifluoromethyl)phenyl]piperazine-1-carboximidamide hydrochloride]: the melting point lay in the range of 170 to 173 °C.
Take `CCc1[nH]nc(C(=O)Nc2ccc([C@H]3CNCCO3)cc2)c1C` [(4-Aminophenyl)morpholino derivative]: the hTAAR1 efficacy on hTAAR1 [1] (partial agonist; cited from earlier work) is 42%.
Turning to `NC(N)=NC(N)=Nc1ccccc1Cl` [BIG2], in the data set on mTAAR1, the EC50 is 410 nM.
Turning to `NC(N)=NC(N)=Nc1ccc(Cl)cc1` [BIG4], the “hTAAR1 EC50” value at hTAAR1 [1] (setting [5]) is “inactive”. Also, the EC50 at hTAAR1 [1] (read-out: hTAAR1 EC50; Figure 2, biguanides SET1 and SET2; cited from earlier work) is more than 10000 nM; in the data set with mTAAR1 it was 2100 nM.
`Cc1ccc(NC(=N)N=C(N)N)cc1` [BIG8]: the “hTAAR1 EC50” value at hTAAR1 [1] (setting [5]) was “inactive”. The EC50 at hTAAR1 [1] (setting [6]) was more than 10000 nM; in the data set on mTAAR1, 1700 nM.
Consider `COc1ccc(N=C(N)N=C(N)N)cc1` [BIG9], for which the “hTAAR1 EC50” value on hTAAR1 [1] (setting [5]) is “inactive”. In addition, the “mTAAR1 EC50” value in the data set with mTAAR1 is “inactive”.
On to `N=C(N)NC(=N)NCc1ccccc1` [BIG10, 1-benzylbiguanide], for which the EC50 was more than 10000 nM on hTAAR1 [1] (setting [6]) and 780 nM with mTAAR1.
On to `NC(N)=NC(N)=NCc1cccc(Cl)c1` [BIG12], for which the EC50 in the data set with mTAAR1 was 97 nM.
Regarding `NC(N)=NC(N)=NCc1ccc(Cl)c(Cl)c1` [BIG14], the EC50 in the data set with mTAAR1 is 36 nM.
Turning to `COc1ccc(CN=C(N)N=C(N)N)cc1` [BIG17], at hTAAR1 [1] (setting [5]), the “hTAAR1 EC50” value was “inactive”. The “mTAAR1 EC50” value with mTAAR1 was “inactive”.
As to `N=C(N)N=C(N)N1CCN(c2ccccc2)CC1` [Compound 1a, 1-phenyl-4-biguanylpiperazine], the EC50 in the data set with mTAAR1 was 2380 nM.
`Cc1ccccc1N1CCN(C(=N)N)CC1.Cl` [Compound 2, 4-(o-Tolyl)piperazine-1-carboximidamide hydrochloride] yielded a melting point of 159 to 162 °C. Also, at hTAAR1 [2], the Emax at 10 µM turned out to be 100%. Moreover, the EC50 at hTAAR1 [2] (setting [7]) was 30.2 nM. The CC50 in data set [3] was determined as 80000 ± 5000 nM. In the data set with Vero-76 cells, the “Therapeutic index (CC50/EC50)” value was determined as 2667.
`Cl.N=C(N)N1CCN(c2ccccc2Cl)CC1` [Compound 3, 4-(2-Chlorophenyl)piperazine-1-carboximidamide hydrochloride]: the Emax at 10 µM at hTAAR1 [2] stood at 90%. The EC50 at hTAAR1 [2] (setting [8]) was 160 nM. For the same compound, the 50% cytotoxic concentration (CC50) in data set [3] was more than 100000 nM. In addition, the “Therapeutic index (CC50/EC50)” value with Vero-76 cells came to 625.
As for `N=C(N)N=C(N)N1CCN(c2ccccc2Cl)CC1` [Compound 3a], in the data set with mTAAR1, the EC50 is 2660 nM.
Consider `Cl.N=C(N)N1CCN(c2ccc(Cl)cc2)CC1` [Compound 5, 4-(4-Chlorophenyl)piperazine-1-carboximidamide hydrochloride], for which the “hTAAR1 Activity” value at hTAAR1 [2] (setting [9]) is “inactive”. This compound registered a 50% cytotoxic concentration (CC50) in data set [3] of 95000 ± 3000 nM. The sympathomimetic effect entry in data set [4] was “a rise in the blood pressure”.
Consider `COc1ccccc1N1CCN(C(=N)N)CC1.Cl` [Compound 6, 4-(2-Methoxyphenyl)piperazine-1-carboximidamide hydrochloride], for which the Emax at 10 µM at hTAAR1 [2] is 64%. For the same compound, the EC50 at hTAAR1 [2] (setting [8]) was 93 nM. Besides, the midpoint of cytotoxicity in data set [3], the CC50, lay at 83000 ± 5000 nM. Further, the “Therapeutic index (CC50/EC50)” value in the data set on Vero-76 cells was found to be 892.
For `COc1cccc(N2CCN(C(=N)N)CC2)c1.Cl` [Compound 7, 4-(3-Methoxyphenyl)piperazine-1-carboximidamide hydrochloride] the same measures were 32%, 244 nM, 87000 ± 4000 nM and 357.
As to `COc1ccc(N2CCN(C(=N)N)CC2)cc1.Cl` [Compound 8, 4-(4-Methoxyphenyl)piperazine-1-carboximidamide hydrochloride], the “hTAAR1 Activity” value on hTAAR1 [2] (setting [9]) is “inactive”. Moreover, in data set [3], the half-maximal cytotoxic concentration (CC50) turned out to be 88000 ± 2000 nM.
With `COc1ccc(N2CCN(C(N)=NC(=N)N)CC2)cc1` [Compound 8a], the “mTAAR1 EC50” value in the data set with mTAAR1 is “inactive”.
As to `N=C(N)N1CCN(c2cccc(C(F)(F)F)c2)CC1` [Compound 9, 4-[(3-Trifluoromethyl)phenyl]piperazine-1-carboximidamide hydrochloride], the Emax at 10 µM on hTAAR1 [2] (setting [9]) was 80%. Moreover, at hTAAR1 [2] (setting [8]), the EC50 stood at 64 nM. The 50% cytotoxic concentration (CC50) in data set [3] was more than 100000 nM. Also, the “Therapeutic index (CC50/EC50)” value in the data set on Vero-76 cells is reported as 1562.
Turning to `Cl.N=C(N)N1CCN(c2ccccn2)CC1` [Compound 10, 4-(Pyridin-2-yl)Piperazine-1-Carboximidamide Hydrochloride], the melting point lay within 205 to 208 °C. Moreover, at hTAAR1 [2], the Emax at 10 µM is 30%. Moreover, the EC50 at hTAAR1 [2] (setting [8]) is more than 2000 nM. The compound also gave a 50% cytotoxic concentration (CC50) in data set [3] of 74000 ± 5000 nM. Also, the “Therapeutic index (CC50/EC50)” value with Vero-76 cells turned out to be 37.
With `N=C(N)N=C(N)N1CCN(c2ncccn2)CC1` [Compound 10a], the “hTAAR1 EC50” value at hTAAR1 [1] (setting [5]) is “inactive”. For the same compound, in the data set on mTAAR1, the EC50 is 9000 nM.
As for `Cl.N=C(N)N1CCN(c2ncccn2)CC1` [Compound 11, 4-(Pyrimidin-2-yl)piperazine-1-carboximidamide hydrochloride], at hTAAR1 [2] (setting [9]), the “hTAAR1 Activity” value was “inactive”. Besides, in data set [3], it took 64000 ± 2000 nM to reach half-maximal cytotoxicity (CC50).
As to `Cl.N#Cc1ccccc1N1CCN(C(=N)N)CC1` [Compound 12, 4-(2-Cyanophenyl)piperazine-1-carboximidamide hydrochloride], the melting point lay in the range of 236 to 238 °C. Also, the “hTAAR1 Activity” value at hTAAR1 [2] (setting [9]) is “inactive”. The compound further showed a CC50 in data set [3] of 78000 ± 2000 nM.
For `Cl.N=C(N)N1CCN(c2ccccc2F)CC1` [Compound 13, 4-(2-Fluorophenyl)piperazine-1-carboximidamide hydrochloride], the melting point is 145 to 148 °C. Further, the “hTAAR1 Activity” value on hTAAR1 [2] (setting [9]) is “inactive”. Moreover, the CC50 in data set [3] came to 87000 ± 5000 nM.
Consider `Cl.N=C(N)N1CCN(c2ccc(F)cc2)CC1` [Compound 14, 4-(4-Fluorophenyl)piperazine-1-carboximidamide hydrochloride], for which the “hTAAR1 Activity” value at hTAAR1 [2] (setting [9]) is “inactive”. Besides, the cytotoxic concentration (CC50) in data set [3] was 94000 ± 6000 nM.
Take `Cl.N=C(N)N1CCN(c2cccc(Cl)c2Cl)CC1` [Compound 15, 4-(2,3-Dichlorophenyl)piperazine-1-carboximidamide hydrochloride]: the Emax at 10 µM on hTAAR1 [2] came out at 81%. Further, the EC50 on hTAAR1 [2] (setting [7]) is 20 nM. This compound displayed a CC50 in data set [3] of 82000 ± 5000 nM. The “Therapeutic index (CC50/EC50)” value with Vero-76 cells is given as 4100.
As for `Cl.N=C(N)N1CCN(c2ccc(Cl)c(Cl)c2)CC1` [Compound 16, 4-(3,4-Dichlorophenyl)piperazine-1-carboximidamide hydrochloride], the melting point is 235 to 237 °C. In addition, on hTAAR1 [2], the Emax at 10 µM amounted to 49%. At hTAAR1 [2] (setting [8]), the EC50 is 71 nM. Besides, the midpoint of cytotoxicity in data set [3], the CC50, lay at 89000 ± 4000 nM. Moreover, in the data set with Vero-76 cells, the “Therapeutic index (CC50/EC50)” value was found to be 1254.
As for `NC1=N[C@H](c2ccc(Br)cc2)CO1` [Compound 27b], the pEC50 on hTAAR1 [1] (2-aminooxazolines reported by Roche, Table S1; cited from earlier work) is on record as 5.00 M.
`NCCc1ccc(O)cc1` [TYR, tyramine, reference compound]: the “hTAAR1 Activity” value on hTAAR1 [2] (setting [9]) is reported as 100%. In addition, the EC50 on hTAAR1 [2] (setting [8]) stood at 66 nM.
For the compound `NCCc1ccccc1` [β-PEA, β-phenylethylamine], the pEC50 on hTAAR1 [1] (hTAAR1; endogenous agonist, no reference given; cited from earlier work) is 6.70 M.
